Values quoted from earlier work, collected in US20100273711A1, “INDIVIDUALIZED CANCER TREATMENTS” (priority 2007, published 2010).

Tests used:
K-562 = settings: pemetrexed, cell line K-562; cited from earlier work
Molt-4 = settings: pemetrexed, cell line Molt-4; cited from earlier work
HL-60 = settings: pemetrexed, cell line HL-60; cited from earlier work
MCF7 = settings: pemetrexed, cell line MCF7; cited from earlier work
HCC-2998 = settings: pemetrexed, cell line HCC-2998; cited from earlier work
HCT-116 = settings: pemetrexed, cell line HCT-116; cited from earlier work
NCI-H460 = settings: pemetrexed, cell line NCI-H460; cited from earlier work
SNB-19 = settings: pemetrexed, cell line SNB-19; cited from earlier work
HS578T = settings: pemetrexed, cell line HS578T; cited from earlier work
MDA-MB-231 = settings: pemetrexed, cell line MDA-MB-231; cited from earlier work
MDA-MB-435 = settings: pemetrexed, cell line MDA-MB-435; cited from earlier work
M14 = settings: pemetrexed, cell line M14; cited from earlier work
MALME-3M = settings: pemetrexed, cell line MALME-3M; cited from earlier work
SK-MEL-2 = settings: pemetrexed, cell line SK-MEL-2; cited from earlier work
SK-MEL-28 = settings: pemetrexed, cell line SK-MEL-28; cited from earlier work
257p = settings: pemetrexed, cell line 257P; cited from earlier work
A375 = settings: pemetrexed, cell line A375; cited from earlier work
C8161 = settings: pemetrexed, cell line C8161; cited from earlier work
ES2 = settings: pemetrexed, cell line ES2; cited from earlier work
ME43 = settings: pemetrexed, cell line me43; cited from earlier work
SKMel19 = settings: pemetrexed, cell line SKMel19; cited from earlier work
SNU182 = settings: pemetrexed, cell line SNU182; cited from earlier work
SNU423 = settings: pemetrexed, cell line SNU423; cited from earlier work
SW13 = settings: pemetrexed, cell line Sw13; cited from earlier work
BT20 = settings: pemetrexed, cell line BT20; cited from earlier work
DV90 = settings: pemetrexed, cell line DV90; cited from earlier work
OAW42 = settings: pemetrexed, cell line OAW42; cited from earlier work
OVKAR = settings: pemetrexed, cell line OVKAR; cited from earlier work
R103 = settings: pemetrexed, cell line R103; cited from earlier work
FUOV1 = settings: pemetrexed, cell line FUOV1; cited from earlier work

Measured: Resistant (Res) or Sensitive (Sen)

Nc1nc2[nH]cc(CCc3ccc(C(=O)N[C@@H](CCC(=O)O)C(=O)O)cc3)c2c(=O)[nH]1 [Pemetrexed, pemetrexed]
Sen: SNB-19 | HS578T | MDA-MB-231 | MDA-MB-435 | M14 | MALME-3M | SK-MEL-2 | SK-MEL-28 | BT20 | DV90 | OAW42 | OVKAR | R103 | FUOV1
Res: all other assays above
